Values quoted from earlier work in patent publication US20230064685A1, “METHODS AND COMPOSITIONS TO INHIBIT SYMPTOMS ASSOCIATED WITH VEISALGIA” (SEN-JAM PHARMACEUTICAL LLC, priority 2015, published 2023).

What was measured:
alcohol hangover = conditions: randomized controlled trials reviewed by Pittler et al. 2005
[1] = test system: hangover symptom of thirst; conditions: each drug alone; general statement, no test described

SMILES	intergroup differences for overall symptom scores and individual symptoms (alcohol hangover)	effect or side effect of reducing thirst [1]
CCCCC/C=C\C/C=C\C/C=C\CCCCC(=O)O [γ linolenic acid from B officinalis, γ linolenic acid]	Significant intergroup differences	
COc1ccc2cc(C(C)C(=O)O)ccc2c1 (stereo not drawn) [naproxen, 6-methoxy-α-methyl-2-naphthaleneacetic acid]		neither naproxen nor fexofenadine, alone, has shown any effect or side effect of reducing thirst
CC(C)(C(=O)O)c1ccc(C(O)CCCN2CCC(C(O)(c3ccccc3)c3ccccc3)CC2)cc1 (racemic) [fexofenadine, (±)-4-[1 hydroxy-4-[4-(hydroxydiphenylmethyl)-1-piperidinyl]-butyl]-α, α-dimethyl benzeneacetic acid]		neither naproxen nor fexofenadine, alone, has shown any effect or side effect of reducing thirst
Cc1c(Cl)cccc1Nc1ccccc1C(=O)O [tolfenamic acid]	Significant intergroup differences	
